# Laboratory results: US12298308B2, “Neoadjuvant chemotherapy induces breast cancer metastasis through a TMEM-mediated mechanism” (Albert Einstein College of Medicine, priority 2017, dated 2025)
# How the values were obtained:
# TMEM [1] = assay: Intravital imaging of TMEM-dependent vascular permeability (bursting); assay type: in vivo, mouse; conditions: co-administration of rebastinib in paclitaxel-treated mice; intravital imaging
# Text: Paclitaxel Induces TMEM-Dependent Vascular Permeability in Breast Tumors—Given that chemotherapy treatment may affect blood vessel dynamics by inducing angiogenesis (9, 11-13, 35-37), intravital imaging (IVI) (FIG. 2A) was used to investigate whether neoadjuvant paclitaxel induces TMEM-dependent (localized) or TMEM-independent (more universal) blood vessel leakage. […] As also reported previously (1), we never observed any bursting incidents without juxtaposition to a clearly defined TMEM site. Bursting was documented by the accumulation of Dextran-TMR signal over time around an active TMEM site, and no such accumulation was observed away from TMEM (FIGS. 2B-C). The entire time-lapse of these was recorded in videos, respectively. The intensity values from all TMEM-mediated bursting incidents observed in paclitaxel-treated mice were averaged and plotted over the entire time of bursting activity (FIG. 2D), which confirmed the transient nature of paclitaxel-induced TMEM-dependent vascular permeability.
# (§1) Drug Administration. The following drugs were administered in mice: Paclitaxel was given at 10 mg/Kg i.v every 5 days for 2 weeks; Doxorubicin was given at 5 mg/Kg i.v. every 5 days for 2 weeks; Cyclophosphamide was given at 120 mg/Kg i.p. only once; Rebastinib was given at 10 mg/Kg per os, every 3-4 days for 4 weeks.
# Intravital Imaging. Intravital imaging was performed using a custom-built two-laser multiphoton microscope, as previously described (57). Mice were anesthetized using 0.75-2.5% isofluorane, depilated. A skin flap procedure, previously developed (58), was performed by exposing the 4th or 5th mammary fat pad. Given the early stage of carcinoma and small tumor size, this necessitated the development of a custom fixturing technique where the exposed tissue was stabilized by affixing the edge of a 10-mm window fitted with an 8-mm clear aperture respectively with cyanoacrylate. The mouse was then placed on a fixturing plate, fitted to the respective window, on the microscope xy stage and imaging was performed in the center of the window away from the glue. The animal was placed in a heated chamber, AirTherm ATX forced air heater (WPI Inc.), maintained at physiologic temperature during the course of imaging, and supplemented with 50-100 uL of PBS per hour via the tail vein catheter. As previously described (1), three milligrams of 155-kDa TMR-dextran (Sigma) were administered via the catheter to visualize the vasculature. All images were reconstructed and analyzed in ImageJ (59), as described in Supplementary Methods.
# TMEM [2] = assay: TMEM score by triple-stain immunohistochemistry in mouse breast tumors; assay type: in vivo
# Text: This hypothesis was investigated in the following breast carcinoma models: (i) transgenic MMTV-PyMT mice bearing spontaneous breast tumors, (ii) FVB mice transplanted orthotopically with tumors from MMTV-PyMT donors, and (iii) two patient-derived xenografts (PDX), HT17 and HT33, developed previously in our laboratory (31). […] Treatment of all groups began at the early carcinoma stage (tumor size of ˜0.3 cm) when there is minimal or absent necrosis. It was decided to work with the early-stage PyMT mouse mammary carcinoma model because it more accurately reflects clinically relevant scenarios where most women present with small tumors of <2 cm (32).
# as §1
# (§2) Animals and Animal Procedures. MMTV-PyMT mice were bred in-house at the Albert Einstein College of Medicine (AECOM). Generation of MMTV-PyMT Mena^−/− has been described previously (28). CFP- or Dendra2-labeled mammary carcinoma cells were generated on the FVB background by co-injection of Tg(MMTV-iCRE)1jwp together with Tg(PCAG-loxp-CATstop-loxp-CFP) or Tg(loxP-stop-loxP-PDendra2)jwp plasmids, respectively, by conventional methods in the Albert Einstein Transgenic Mouse Facility. All syngeneic transplantation models were generated through orthotopic transplantation of 1 mm×1 mm tumor chunks, using tumors of 1 cm-diameter from 12-16-week old MMTV-PyMT mena−/− or mena+/+ donor mice into 5-6 week-old FVB recipients. Tumor chunks were implanted on the fourth mammary pad on the left side. The generation of the ER^− HT17 and ER^+ HT33 patient-derived xenografts has been described previously (31). Animal handling and associated procedures were approved by the Institutional Animal Care and Use Committee (IACUC). Additional information is detailed in Supplementary Methods.
# Histology and TMEM Immunohistochemistry. Breast tumors and lungs were isolated, rinsed in PBS, fixed in 10% neutral buffered formalin for 48 hours, dehydrated and embedded in paraffin. Sections (5 μm) were stained with H & E or TMEM triple-stain immunohistochemistry, as previously described (3).
# circulating tumor cells = assay: Circulating tumor cells per mL of blood; assay type: in vivo, mouse; conditions: PyMT-transplantation and HT17 xenograft
# Protocol: as §1
# Circulating Tumor Cells. Mice were anesthetized with 3.5-4.5% isoflurane, and blood was taken from the right ventricle by heart puncture, using 25G needles coated with heparin. Erythrocytes were lysed, using 10 ml of 1×RBC lysis buffer (multi-species, eBioscience). Cancer cells were quantified, as previously described (31, 60).
# [3] = test system: Tie2^hi/Vegf^hi macrophages; assay: Macrophage infiltration by multi-channel immunofluorescence (Iba1, Cd31, Tie2, Vegf); assay type: in vivo, mouse
# Text: The functional TMEM sites contain Tie2^hi/Vegf^hi macrophages and invasive tumor cells in perivascular regions (1), and it was independently shown that chemotherapy may promote mobilization of such Tie2^hi monocyte progenitors in primary tumors (8, 10). The Tie2^hi/Vegf^hi macrophage subpopulation was quantified herein using multi-channel immunofluorescence (IF) imaging (FIGS. 1D-F) (10, 14, 34). FIG. 1E illustrates a representative IF image of a Tie2^hi/Vegf^hi macrophage quantified using Cd31, Iba1, Vegf and Tie2 staining.
# as §1, §2
# Immunofluorescence. Slides were deparaffinized by melting at 60° C. in an oven equipped with a fan for 20 minutes, followed by 2× xylene treatment for 20 minutes. Slides were rehydrated and antigen retrieval was done in 1 mM EDTA (pH 8.0) or 1× citrate buffer (pH 6.0) (Diagnostic BioSystems) at 97° C. for 20 minutes in a conventional steamer. Endogenous peroxidase was blocked by using 0.3% hydrogen peroxide in water, followed by incubation of slides in a blocking buffer solution (10% FBS, 1% BSA, 0.0025% fish skin gelatin in 0.05% PBST) for 60 minutes at room temperature. The following primary antibodies were used in different combinations, depending on the experiment: chicken anti-Mena^INV (0.25 ug/mL, generated in-house in the lab of John S. Condeelis), rabbit anti-Cd31 (1:400; 77699s; Cell Signaling), rabbit anti-Vegf (1:2,000; Rb 9031-PO-A; Thermo), rat anti-Tie2 (1:100; 16-5987-82; eBioscience), rabbit anti-Iba1 (1:6,000; 019-19741; Wako), rat anti-endomucin (1:500; sc-65495; Santa Cruz), rabbit anti-TMR (1:1,000; A-6397; Life Technologies). Secondary antibody treatment was performed using HRP-conjugated antibodies, and was followed by tyramide signal amplification (TSA), using the Perkin Elmer; Opal™ 4-color Fluorescent IHC kit, according to the manufacturer's directions. All slides were imaged on the Pannoramic 250 Flash II digital whole slide scanner, using a 20×0.75NA objective lens. Image analysis was performed in ImageJ, detailed in Supplementary Methods.
# [4] = rebastinib in paclitaxel-treated animals
# [5] = single agent vs vehicle, PyMT-transplantation and HT17 xenograft
smiles,measurement,setting,value
"CNC(=O)c1cc(Oc2ccc(NC(=O)Nc3cc(C(C)(C)C)nn3-c3ccc4ncccc4c3)c(F)c2)ccn1 [rebastinib, 4-[4-[(5-tert-butyl-2-quinolin-6-ylpyrazol-3-yl)carbamoylamino]-3-fluorophenoxy]-N-methylpyridine-2-carboxamide]",frequency of bursting,TMEM [1],completely abolished
same,incidence of bursting,TMEM [1],completely abolished
same,TMEM assembly,TMEM [2]; [4],without affecting
same,overall TMEM score (TMEM assembly),TMEM [2]; [5],did not significantly affect
same,circulating tumor cells,circulating tumor cells; [4],decreased circulating tumor cells to the level observed in the control animals
same,number of CTCs (TMEM activity),circulating tumor cells; single agent vs vehicle,reduced
same,number of perivascular Tie2^hi/Vegf^hi macrophages,[3]; [4],decreased
same,density of perivascular Tie2^hi/Vegf^hi macrophages,[3]; [5],did not significantly affect
